In test [1] the test system is Candida albicans. As to the kind of experiment: Antimicrobial activity against fluconazole susceptible Candida albicans isolate 945 expressing low levels of ERG11 and UPC2 mRNA by microdilution method. The format is functional.
For test [2], the system named is Candida albicans. As to the kind of experiment: Antimicrobial activity against fluconazole resistant Candida albicans isolate 3795 expressing high levels of ERG11 and UPC2 mRNA by microdilution method. The format is functional.
In test [3] the test system is Candida albicans. As to the kind of experiment: Antimicrobial activity against Candida albicans isolate SC5314 expressing UPC2 G648D/UPC2 G648D double mutant alleles by microdilution method relative wild type. Type of test: functional.
The test system of test [4] is Candida albicans. As to the kind of experiment: Antimicrobial activity against Candida albicans isolate SC5314 expressing UPC2/UPC2 A643T mutant allele by microdilution method relative wild type. The format is functional, organism-based. (In general: In broth dilution the organism is exposed to a series of concentrations in liquid medium.)
Test [5] concerns Candida albicans. The experiment in a line: Antimicrobial activity against Candida albicans isolate SC5314 expressing UPC2 G648D/UPC2 A643T double mutant alleles by microdilution method relative wild type. Type of test: functional, organism-based.
In test [6] the test system is Candida albicans. The experiment in a line: Antimicrobial activity against fluconazole resistant Candida albicans isolate 1619 expressing high levels of ERG11 and UPC2 mRNA by microdilution method. The format is functional.
Test [7] deals with Candida albicans. As to the kind of experiment: Antimicrobial activity against fluconazole susceptible Candida albicans 5054 expressing low levels of ERG11 and UPC2 mRNA by microdilution method. Type of test: functional.
Test [8] has as its system Candida albicans. As to the kind of experiment: Antimicrobial activity against fluconazole susceptible Candida albicans isolate 580 expressing low levels of ERG11 and UPC2 mRNA by microdilution method. Type of test: functional.
The subject of test [9] is Candida albicans. As to the kind of experiment: Antimicrobial activity against fluconazole resistant Candida albicans isolate 2440 expressing high levels of ERG11 and UPC2 mRNA by microdilution method. Type of test: functional.
Test [10] has as its system Candida albicans. The experiment in a line: Antimicrobial activity against fluconazole susceptible Candida albicans isolate 5052 expressing low levels of ERG11 and UPC2 mRNA by microdilution method. The format is functional.
In test [11] the test system is Candida albicans. The experiment in a line: Antimicrobial activity against fluconazole susceptible Candida albicans isolate 1002 expressing low levels of ERG11 and UPC2 mRNA by microdilution method. Type of test: functional.
In test [12] the test system is Candida albicans. As to the kind of experiment: Antimicrobial activity against Candida albicans isolate SC5314 expressing UPC2/UPC2 G648D mutant allele by microdilution method relative wild type. Type of test: functional.

≈ marks a conversion by molar mass, not a printed value. Calls of active or inactive are those of the source. The calls are words filed in the database; no cut-off is given here.

Consider `OC(Cn1cncn1)(Cn1cncn1)c1ccc(F)cc1F` [FLUCONAZOLE], for which the minimal inhibitory concentration (MIC) – broadly, the lowest concentration found to suppress growth – was 4 µg/mL (≈ 13.1 µM) against Candida albicans [1]; above 64 µg/mL in the test with Candida albicans [2]; 32 µg/mL (≈ 104 µM) in the test on Candida albicans [6]; 4 µg/mL (≈ 13.1 µM) in the test with Candida albicans [7]; 1 µg/mL (≈ 3.27 µM) in the test on Candida albicans [8]; 32 µg/mL (≈ 104 µM) against Candida albicans [9]. Moreover, the MIC amounted to 32 µg/mL (≈ 104 µM) in the test with Candida albicans [10] and 0.25 µg/mL (≈ 0.816 µM) in the test with Candida albicans [11]. Further, the figures for the Ratio in the test with Candida albicans [3] and in the test on Candida albicans [12] were 8 and 4, respectively. In addition, the MIC entry in the test with Candida albicans [4] and in the test on Candida albicans [5] was “inactive” throughout.

The record behind these values is ChEMBL document CHEMBL1212765, “An A643T mutation in the transcription factor Upc2p causes constitutive ERG11 upregulation and increased fluconazole resistance in Candida albicans” (2010).
